Test results reported in patent US11970469B2 (Oxford University Innovation Limited, priority 2018, dated 2024).

Biological target: GST-human KRas166 (G12V) GPPNHP (Homo sapiens, UniProt P01116, G12V)
Assay: KRas small-molecule screening by SPR (BIACORE T200)
Assay type: binding
Parameters: KRAS166 (G12V) was immobilized between 10,000 to 15,000 Response Units; made in house; host or cells: E. coli C41(DE3)
Conditions: compounds at final concentration of 100 uM; immobilised KRAS166 (G12V) GPPNHP; no unit printed (method speaks of response units)
Protocol: For SPR assays pGEX-KRAS(G12V) plasmid was transformed into E. coli C41(DE3). Bacterial cells were cultured at 37° C. to an OD600 of 0.6 and induced with IPTG (final 0.1 mM) at 18° C. over night. The GST fusion proteins were extracted from bacteria pellets after cell disruption in 140 mM NaCl, 2.7 mM KCl, 10 mM NaH2PO4, 1.8 mM KH2PO4, 1 mM EDTA, 2 mM MgCl2 pH 7.4 and purified by glutathione-sepharose column chromatography (GE Healthcare), eluting with 50 mM Tris-HCl pH8.0, 10 mM reduced glutathione, 1 mM DTT, 2 mM MgCl2. The eluted proteins were dialysed against 50 mM Tris-HCl pH8.0, 1 mM DTT, 2 mM MgCl2 and concentrated to 10 mg/ml using a Biomax-30 ULTRAFREE-15 centrifugal filter device (Millipore). Purified KRAS protein was loaded with GPPNHP as described elsewhere (Pacold et al., 2000). Loaded protein was then purified by gel filtration on a HiLoad Superdex-75 HR column (GE Healthcare) in 1×PBS pH7.4, 5 mM MgCl2 and concentrated for storage. Protocol for KRas small-molecule screening and affinity measurements by SPR
To a previously immobilized CM5 chip (GE Healthcare BR-1005-30) with anti GST antibody via amine coupling method, GST in channel 1 and GST-human KRas166 (G12V) GPPNHP in channel 2 were immobilised. GST was immobilised between 2,000 and 5,000 Response units. KRAS166 (G12V) was immobilized between 10,000 to 15,000 Response Units. […]

Question: COc1cccc(-c2ccc(Nc3ccc(C(=O)NCC4CCN(C(=O)OC(C)(C)C)CC4)cc3)cc2)c1 [Example 19] was tested. Which SPR did it give?
Answer: 33
